Data reported in patent US20260034112A1, “MULTI-CYCLIC IRAK1 AND IRAK4 INHIBITING COMPOUNDS AND USES THEREOF” (CHILDREN'S HOSPITAL MEDICAL CENTER, priority 2022, published 2026).
Like-named read-outs stand apart in the source and are kept apart here.

Test system: THP1 cells
Assay type: cell-based, human
Details: PF-06650833 vs DMSO in THP1 cells

Structure (SMILES): CC[C@@H]1[C@H](F)C(=O)N[C@@H]1COc1nccc2cc(C(N)=O)c(OC)cc12 [PF-06650833, Zimlovisertib]
- Log(FC) (gene ACVR1C): −0.6723
- Log(FC) (gene ADPGK-AS1): −0.6683
- Log(FC) (gene ALDH1A3): −0.6705
- Log(FC) (gene APOBR): −0.6497
- Log(FC) (gene APOC1): −0.67
- Log(FC) (gene AQP3): −0.6432
- Log(FC) (gene ARHGAP25): −0.5895
- Log(FC) (gene ARRDC3-AS1): −0.5996
- Log(FC) (gene ASGR2): −0.631
- Log(FC) (gene BMP8B): −0.6206
- Log(FC) (gene BPI): −0.6416
- Log(FC) (gene C1QL4): −0.5987
- Log(FC) (gene C1orf226): −0.604
- Log(FC) (gene C1orf228): −0.634
- Log(FC) (gene C3): −0.6607
- Log(FC) (gene C19orf35): −0.675
- Log(FC) (gene C19orf59): −0.6476
- Log(FC) (gene C20orf197): −0.6914
- Log(FC) (gene CACNA2D3): −0.6049
- Log(FC) (gene CALHM2): −0.6575
- Log(FC) (gene CCDC78): −0.6022
- Log(FC) (gene CCL23): −0.6739
- Log(FC) (gene CD300LB): −0.5972
- Log(FC) (gene CENPH): −0.6701
- Log(FC) (gene DGKG): −0.6202
- Log(FC) (gene EVI2B): −0.6362
- Log(FC) (gene FAM111B): −0.6646
- Log(FC) (gene FAM161B): −0.6003
- Log(FC) (gene FAS): −0.6791
- Log(FC) (gene FAT4): −0.6913
- Log(FC) (gene FMO5): −0.639
- Log(FC) (gene FOS): −0.5974
- Log(FC) (gene FOSL1): −0.6175
- Log(FC) (gene GAPT): −0.6025
- Log(FC) (gene GIPC3): −0.6076
- Log(FC) (gene GNG12): −0.6632
- Log(FC) (gene GPR35): −0.6621
- Log(FC) (gene HSPA1L): −0.6007
- Log(FC) (gene HYDIN2): −0.6113
- Log(FC) (gene IL1R1): −0.6855
- Log(FC) (gene IL16): −0.667
- Log(FC) (gene IQGAP2): −0.5919
- Log(FC) (gene KCNA3): −0.6759
- Log(FC) (gene KIF21B): −0.6912
- Log(FC) (gene KLHL30): −0.6632
- Log(FC) (gene KREMEN2): −0.6258
- Log(FC) (gene LDOC1): −0.6494
- Log(FC) (gene LHFPL2): −0.6019
- Log(FC) (gene LINC01094): −0.6762
- Log(FC) (gene LOC81691): −0.6095
- Log(FC) (gene LOC339862): −0.6552
- Log(FC) (gene LOC100093631): −0.631
- Log(FC) (gene LOC100507642): −0.6508
- Log(FC) (gene LOC101927841): −0.6312
- Log(FC) (gene LOC101929119): −0.6138
- Log(FC) (gene LOC101929545): −0.5904
- Log(FC) (gene LOC102723883): −0.5967
- Log(FC) (gene MPEG1): −0.6879
- Log(FC) (gene MPO): −0.6316
- Log(FC) (gene MPZ): −0.5945
- Log(FC) (gene MTMR11): −0.6705
- Log(FC) (gene MUC19): −0.6358
- Log(FC) (gene NCALD): −0.6
- Log(FC) (gene NHLRC3): −0.66
- Log(FC) (gene NHSL2): −0.639
- Log(FC) (gene NMNAT2): −0.6786
- Log(FC) (gene PAX8): −0.674
- Log(FC) (gene PCED1B-AS1): −0.6355
- Log(FC) (gene PDCD4): −0.6069
- Log(FC) (gene PODNL1): −0.6661
- Log(FC) (gene PRTN3): −0.6776
- Log(FC) (gene PSTPIP1): −0.6238
- Log(FC) (gene RGS3): −0.6231
- Log(FC) (gene RPSAP9): −0.6104
- Log(FC) (gene RSPO1): −0.6269
- Log(FC) (gene S1PR3): −0.6476
- Log(FC) (gene S1PR5): −0.6503
- Log(FC) (gene SCIMP): −0.6308
- Log(FC) (gene SERPINA1): −0.615
- Log(FC) (gene SETBP1): −0.6709
- Log(FC) (gene SIM1): −0.6107
- Log(FC) (gene SLC2A3): −0.6056
- Log(FC) (gene SLC6A11): −0.6327
- Log(FC) (gene SLC9A7): −0.6539
- Log(FC) (gene SNORA73A): −0.6228
- Log(FC) (gene SNX10): −0.6217
- Log(FC) (gene SWT1): −0.6012
- Log(FC) (gene SYN3): −0.6041
- Log(FC) (gene SYTL1): −0.5922
- Log(FC) (gene TACC2): −0.6004
- Log(FC) (gene THBS4): −0.6785
- Log(FC) (gene TLR1): −0.6365
- Log(FC) (gene TMEM45A): −0.5913
- Log(FC) (gene TMEM238): −0.6139
- Log(FC) (gene TNFSF10): −0.6794
- Log(FC) (gene TNS1): −0.6915
- Log(FC) (gene TREM1): −0.6699
- Log(FC) (gene TRIM72): −0.6733
- Log(FC) (gene ZNF630): −0.6307
- Log(FC) (gene ZNF836): −0.606
